Eleven compounds from PMC11741115, “New Hydrogenated Phenanthrene Glycosides from the Edible Vegetable Elatostema tenuicaudatum W.T.Wang with DPP-IV Inhibitory and Hepatoprotective Activity” (Journal of Agricultural and Food Chemistry, 2025) can be followed below.

Molecules are shown by their SMILES.

The target of one assay is T1, DPP-IV (Homo sapiens, UniProt P27487).
T1 construct: purchased BioVision K779-100
Nature of the assay: DPP-IV inhibition activity (DPP-IV Activity Assay Kit, AMC fluorescence). It is filed as biochemical. The settings on record: for IC50: pure compounds; for DPP-IV inhibition (in words): summary. As for the experimental part: 2.7. DPP-IV inhibition activity
A commercially available DPP -IV Activity Assay Kit (K779 -100, BioVision) was employed to evaluate DPP-IV activity. The procedures were conducted according to the manufacturer’s instructions. DPP-IV enzymatically cleaves substrates, leading to the release o f the quenched fluorescent group AMC (7 -Amino-4-Methyl Coumarin). AMC detection was measured with a fluorescence reader at Ex/Em = 360/460 nm. […]

For the next assay, the system named is HepG2 cells. Nature of the assay: Hepatoprotective effect against acetaminophen-induced hepatotoxicity in HepG2 cells (MTT). It is filed as cell-based, Human. The conditions noted are these: for viability at 50 µM: Homo sapiens, HepG2, 50 μM compound, pretreated 8 h, 6 mM APAP for 36 h, MTT, read-out: cell viability (cytoprotection against APAP). The method, then: Human hepatocellular carcinoma HepG2 cells were obtained from the Bioresource Collection and Research Center (BCRC, Hsinchu, Taiwan). Cells culture was conducted with a complete medium consisting of DMEM (Dulbecco's Modified Eagle Medium, Gibco), 10% (v/v) fetal bovine serum (FBS) (Gibco), and 1% (v/v) antibiotic -antimycotic […] (Gibco, 15240062). Upon reaching at 80% confluence, cells were rinsed with PBS and detached using trypsin -EDTA (Gibco, 25200072) at 37 °C for 5 minutes. Subsequently, cells were seeded into specialized 96 -well plates (3 × 10^4/well, 100 µL/well) and incubated for 24 hours at 37 °C with 5% CO2. […]
control cells were used as a reference under the same conditions. The maximum absorbance value depended on the solvent used in the sample solution, and the percentage viability of cells was determined using the formula: […]. […]
3.9.2. Assess hepatoprotective effects of compounds […]
using an acetaminophen-induced hepatotoxicity HepG2 model. Cells were initially seeded in 96 -well plates at a density of 3 × 10^4 cells/well and then incubated under identical conditions with 5% CO 2 for 24 hours. Following this, cells were exposed to the test samples. After 8 hours, hepatotoxicity was induced using acetaminophen (Sigma Aldrich, A7085) at a concentration of 6 mM. The protective effects were assessed by determining cell viability using the MTT method 36 hours post - acetaminophen induc tion. Silymarin (at concentration of 50 μg/mL) was used as positive control. […]

T1 sequence (P27487 whole entry, species assumed): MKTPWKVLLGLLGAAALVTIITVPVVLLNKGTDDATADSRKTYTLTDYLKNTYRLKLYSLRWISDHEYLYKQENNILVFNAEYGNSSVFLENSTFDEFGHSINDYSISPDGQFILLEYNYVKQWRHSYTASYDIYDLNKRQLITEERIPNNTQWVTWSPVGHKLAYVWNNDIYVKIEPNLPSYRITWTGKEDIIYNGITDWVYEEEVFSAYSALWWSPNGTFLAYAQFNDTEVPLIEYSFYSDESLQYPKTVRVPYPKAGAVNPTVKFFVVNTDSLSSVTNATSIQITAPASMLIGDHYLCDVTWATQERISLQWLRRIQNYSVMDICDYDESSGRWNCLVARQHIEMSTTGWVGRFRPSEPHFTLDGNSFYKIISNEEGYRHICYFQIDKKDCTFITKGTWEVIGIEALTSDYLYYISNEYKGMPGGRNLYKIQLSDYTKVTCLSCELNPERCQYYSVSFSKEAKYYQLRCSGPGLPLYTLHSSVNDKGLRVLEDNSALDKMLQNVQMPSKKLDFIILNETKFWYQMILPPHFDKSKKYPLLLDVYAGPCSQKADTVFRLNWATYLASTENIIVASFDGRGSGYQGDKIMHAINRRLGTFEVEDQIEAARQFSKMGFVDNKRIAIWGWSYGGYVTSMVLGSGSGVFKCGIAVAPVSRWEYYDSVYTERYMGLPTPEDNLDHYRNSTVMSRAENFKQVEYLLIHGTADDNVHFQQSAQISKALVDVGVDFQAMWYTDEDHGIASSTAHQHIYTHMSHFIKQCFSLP

By inhibition is commonly meant how much of the control response was suppressed. Read a high inhibition as a response far below the control. What is called IC50 is the point on the concentration scale where inhibition reaches its midpoint. Low readings indicate greater potency, high ones weaker potency. For the compound `COc1cc2c(cc1O[C@@H]1O[C@H](CO)[C@@H](O)[C@H](O)[C@H]1O)[C@@]1(O)C(=O)C[C@@H](O)C[C@H]1CC2` [Compound 6, elatostemanoside F], on DPP-IV, the inhibition at 150 µM was at least 50%, the inhibition at 400 µM was above 50%, the IC50 is 151 ± 11.8 µM and the “DPP-IV inhibition (in words)” value is given as “weak effects”.

For `COc1cc2c(cc1O[C@@H]1O[C@H](CO)[C@@H](O)[C@H](O)[C@H]1O)[C@@]1(O)C(=O)[C@@H](O)[C@H](O)C[C@H]1CC2` [Compound 8, elatostemanoside H], on DPP-IV, the inhibition at 150 µM is at least 50%, the inhibition at 400 µM is above 50%, the IC50 is 108 ± 19.6 µM and the “DPP-IV inhibition (in words)” value is listed as “weak effects”.

As for `COc1cc2c(cc1OC1OC(CO)C(O)C(O)C1O)C1(O)C(=O)CC(C3=CCC4CCc5cc(OC)c(OC6OC(CO)C(O)C(O)C6O)cc5C4(O)C3=O)CC1CC2` (centres unmarked) [Compound 16, elatostemanoside P], the inhibition at 400 µM against DPP-IV was above 50%.

What is called viability is a read-out of living cells in per cent, often relative to untreated cells. As to `COc1cc2c(cc1O[C@@H]1O[C@H](CO)[C@@H](O)[C@H](O)[C@H]1O)[C@@]1(O)C(=O)C=CC[C@H]1CC2` [Compound 11, elatostemanoside K], in the assay on HepG2 cells, the “hepatoprotective effect in acetaminophen-induced hepatotoxicity in HepG2 (in words)” value (from here on “hepatoprotective effect”) is recorded as “significant hepatoprotective effects” and the viability at 50 µM came to 81.6%.

In the case of `COc1cc2c(cc1O[C@@H]1O[C@H](CO)[C@@H](O)[C@H](O)[C@H]1O)[C@@]1(O)C(=O)C[C@H](O)C[C@H]1CC2` [Compound 5, elatostemanoside E], on DPP-IV, the inhibition at 150 µM was at least 50%, the inhibition at 400 µM is above 50%, the IC50 was determined as 142 ± 15.6 µM and the “DPP-IV inhibition (in words)” value is “weak effects”.

As to `OC[C@H]1O[C@@H](Oc2cc3c(cc2O)CCc2cccc(O)c2-3)[C@H](O)[C@@H](O)[C@@H]1O` [Compound 14, 7,4-dihydroxy-9,10-dihydrophenanthrene 6-O-β-D-glucopyranoside], on DPP-IV, the inhibition at 150 µM is at least 50%, the inhibition at 400 µM is above 50%, the IC50 was determined as 71.9 ± 8.9 µM and the “DPP-IV inhibition (in words)” value is listed as “moderate inhibition”. Moreover, in the assay on HepG2 cells, the “hepatoprotective effect” value is “significant hepatoprotective effects” and the viability at 50 µM stood at 78.8%.

Compound `COc1cc2c(cc1O[C@@H]1O[C@H](CO[C@@H]3O[C@@H](C)[C@H](O)[C@@H](O)[C@H]3O)[C@@H](O)[C@H](O)[C@H]1O)-c1c(O)cccc1CC2` [Compound 15, elatostemanoside O] registered an inhibition at 400 µM on DPP-IV above 50%.

Regarding `COc1cc2c(cc1O[C@@H]1O[C@H](CO)[C@@H](O)[C@H](O)[C@H]1O)[C@@]1(O)C(=O)C=CC[C@@H]1CC2` [Compound 9, elatostemanoside I], in the assay on HepG2 cells, the “hepatoprotective effect” value was “significant hepatoprotective effects” and the viability at 50 µM was 82.6%.

Consider `COc1cc2c(cc1O[C@@H]1O[C@H](CO)[C@@H](O)[C@H](O)[C@H]1O)[C@@]1(O)C(=O)C[C@@H](O)C[C@@H]1CC2` [Compound 2, elatostemanoside B], for which the inhibition at 400 µM against DPP-IV is above 50%.

Regarding `COc1cc2c(cc1O[C@@H]1O[C@H](CO)[C@@H](O)[C@H](O)[C@H]1O)[C@@]1(OC)C(=O)C=CC[C@@H]1CC2` [Compound 10, elatostemanoside J], the inhibition at 400 µM against DPP-IV is above 50%.

At DPP-IV, `COc1cc2c(cc1O[C@@H]1O[C@H](CO)[C@@H](O)[C@H](O)[C@H]1O)[C@@]1(O)C(=O)C[C@H](O)C[C@@H]1CC2` [Compound 1, elatostemanoside A] showed an inhibition at 400 µM above 50%. In addition, in the assay on HepG2 cells, the “hepatoprotective effect” value is “significant hepatoprotective effects” and the viability at 50 µM is 85.6%.
